ChEMBL document CHEMBL3880421, “Indazole compounds and pharmaceutical compositions for inhibiting protein kinases, and methods for their use” (2003)

How the values were obtained:
[1] = Terminal half life in B6 mouse at 25 mg/kg, ip by UV-HPLC analysis; type: ADME, organism-based; conditions: in vivo, read-out: beta t1/2 (converted)
[2] = Terminal half life in B6 mouse at 25 mg/kg, po by UV-HPLC analysis; type: ADME, organism-based; conditions: B6, mouse, in vivo, read-out: beta t1/2 (converted)
[3] = test system: Rattus norvegicus; assay: Antivascular activity in rat model of retinopathy assessed as vessel regression in retina at 5 mg/ml, administered intravitreally on postnatal day 8 measured after 6 days by ADPase-staining based histochemical analysis; type: functional
[4] = Terminal half life in B6 mouse at 25 mg/kg, po administered in 0.5% CMC by UV-HPLC analysis; type: ADME, organism-based; conditions: in vivo, read-out: beta t1/2 (converted)
[5] = AUClast in B6 mouse at 200 mg/kg, po by UV-HPLC analysis; type: ADME, organism-based; parameters: dose 200 mg/kg, time 0 - last, route oral; conditions: in vivo
[6] = Cmin in B6 mouse at 200 mg/kg, po measured after 7 hrs by UV-HPLC analysis; type: ADME, organism-based; conditions: in vivo, read-out: Cmin
[7] = Terminal half life in B6 mouse at 200 mg/kg, po by UV-HPLC analysis; type: ADME, organism-based; conditions: in vivo, read-out: beta t1/2 (converted)

Row | Compound | half-life [1] [h] | half-life [2] [h] | Activity [3] | half-life [4] [h] | AUC(0-t) [5] [µg·h/mL] | concentration at 7 h [6] [µg/mL] | half-life [7] [h]
1 | CCONC(=O)c1ccccc1Sc1ccc2c(/C=C/c3ccccn3)n[nH]c2c1 | 4.1 | 2 | >=25 - 75% | 2 |  |  | 
2 | Cc1cc(C(=O)Nc2cccc(C(=O)c3ccc4c(/C=C/c5ccccn5)n[nH]c4c3)c2)n(C)n1.Cl |  |  |  |  | 156 | 12.1 | 9.4
